# Laboratory results: patent US20060173064A1, “(-)-1-(3,4-Dichlorophenyl)-3-azabi cyclo[3.1.0]hexane, compositions thereof, and uses for treating alcohol-related disorders” (priority 2001, published 2006)
# Marks after values point to notes of the source that are not given here.
# Legend:
# [1] = target: norepinephrine transporter (norepinephrine uptake site), rat forebrain membranes (Rattus norvegicus, UniProt Q63380); conditions: Table 2; hydrochloride
# Experimental: The norepinephrine transporter binding assay was performed according to the methods described in Raisman et al., 1982, Eur. J. Pharmacol. 78:345-351 and Langer et al., 1981, Eur. J. Pharmacol. 72:423. […] Reactions were carried out in 50 mM TRIS-HCI (pH 7.4), containing 300 mM NaCl and 50 mM KCl and at 0° C. to 4° C. for four hours. The reaction was terminated by rapid vacuum filtration onto glass fiber filters. Radioactivity trapped in the filters was determined and compared to control values in order to ascertain the interactions of the test compound with the norepinephrine uptake site.
# [2] = target: T1, serotonin transporter (serotonin uptake site), human platelet membranes (Homo sapiens, UniProt P31645); test: Serotonin transporter binding assay ([3H]citalopram); conditions: summary of Table 3; hydrochloride
# T1 construct: The receptor source was human platelet membranes; from tissue; host or cells: human platelets (membranes)
# T1 sequence (P31645 whole entry): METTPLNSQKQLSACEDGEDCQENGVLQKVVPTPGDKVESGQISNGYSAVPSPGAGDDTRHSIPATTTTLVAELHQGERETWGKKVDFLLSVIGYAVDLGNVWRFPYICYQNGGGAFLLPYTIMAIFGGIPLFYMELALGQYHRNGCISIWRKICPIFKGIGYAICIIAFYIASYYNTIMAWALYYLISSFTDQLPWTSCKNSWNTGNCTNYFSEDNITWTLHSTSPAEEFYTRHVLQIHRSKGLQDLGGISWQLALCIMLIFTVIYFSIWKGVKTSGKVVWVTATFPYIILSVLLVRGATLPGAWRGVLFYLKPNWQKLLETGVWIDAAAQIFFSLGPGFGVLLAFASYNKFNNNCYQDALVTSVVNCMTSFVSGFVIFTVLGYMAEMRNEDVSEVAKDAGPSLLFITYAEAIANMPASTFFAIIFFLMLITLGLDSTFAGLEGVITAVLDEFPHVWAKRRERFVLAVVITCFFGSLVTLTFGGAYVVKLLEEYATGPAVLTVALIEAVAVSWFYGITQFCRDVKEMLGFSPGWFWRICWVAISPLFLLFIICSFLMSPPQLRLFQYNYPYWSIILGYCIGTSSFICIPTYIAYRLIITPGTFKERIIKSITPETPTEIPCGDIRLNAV
# Experimental: Reactions were carried out in 50 mM TRIS-HCl (pH 7.4), containing 120 mM NaCl and 5 mM KCl and at 25° C. for one hour. The reaction was terminated by rapid vacuum filtration onto glass fiber filters. Radioactivity trapped in the filters was determined and compared to control values in order to ascertain the interactions of the test compound with the serotonin uptake site.
# [3] = target: T2, dopamine transporter (dopamine uptake site), guinea pig striatal membranes (Cavia porcellus, UniProt H0WCX4); test: Dopamine transporter binding assay ([3H]WIN 35,428); conditions: summary of Table 1
# T2 construct: The receptor source was guinea pig striatal membranes; from tissue; host or cells: guinea pig striatum (membranes)
# T2 sequence (H0WCX4 1-619): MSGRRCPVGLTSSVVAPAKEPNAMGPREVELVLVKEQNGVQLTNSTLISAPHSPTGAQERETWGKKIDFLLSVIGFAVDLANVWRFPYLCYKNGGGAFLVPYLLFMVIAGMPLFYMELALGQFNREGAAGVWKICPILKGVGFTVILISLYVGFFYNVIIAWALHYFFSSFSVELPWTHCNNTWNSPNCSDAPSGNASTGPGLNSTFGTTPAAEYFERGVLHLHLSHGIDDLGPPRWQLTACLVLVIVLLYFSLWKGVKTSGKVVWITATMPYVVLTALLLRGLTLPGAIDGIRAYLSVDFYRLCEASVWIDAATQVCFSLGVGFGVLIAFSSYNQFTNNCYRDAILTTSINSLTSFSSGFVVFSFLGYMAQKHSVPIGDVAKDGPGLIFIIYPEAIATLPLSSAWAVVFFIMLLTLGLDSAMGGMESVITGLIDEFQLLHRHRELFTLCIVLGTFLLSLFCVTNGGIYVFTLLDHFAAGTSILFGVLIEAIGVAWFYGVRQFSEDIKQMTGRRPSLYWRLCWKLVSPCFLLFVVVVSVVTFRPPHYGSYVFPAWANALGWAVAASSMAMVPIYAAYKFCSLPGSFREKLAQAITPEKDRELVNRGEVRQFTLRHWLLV
# Experimental: The dopamine uptake transporter binding assay was performed according to the methods described in Madras et al., 1989, Mol. Pharmacol. 36(4):518-524 and Javitch et al., 1984, Mol. Pharmacol. 26(1):35-44. […] Reactions were carried out in 50 mM TRIS-HCI (pH 7.4), containing 120 mM NaCl and at 0° C. to 4° C. for two hours. The reaction was terminated by rapid vacuum filtration onto glass fiber filters. Radioactivity trapped in the filters was determined and compared to control values in order to ascertain the interactions of the test compound with the dopamine uptake site.
# [4] = target: hSERT (recombinant human serotonin transporter) (Homo sapiens, UniProt P31645); test: Inhibition of [3H]5-HT uptake in HEK-hSERT cells; conditions: (−)-enantiomer versus the racemate
# Chain of hSERT (recombinant human serotonin transporter) (P31645 whole entry): as the sequence (P31645 whole entry) above
# [5] = Body weight of the mHEP rat in the ethanol study; format: in vivo; conditions: for Bodyweight, Mean ± s.e.m., pre-: three-day pre-treatment period (baseline); for Bodyweight, Mean ± s.e.m., pre- / Bodyweight, Mean ± s.e.m., during / Bodyweight, Mean ± s.e.m., post-: male mHEP rat; for Bodyweight, Mean ± s.e.m., during: during three days of injections; for Bodyweight, Mean ± s.e.m., post-: three-day post-treatment period
# Experimental: (§1) The study described here was performed using procedures modified from previous reports (Myers R D et al., Genetics of alcoholism: Rapid development of a new high ethanol preferring (HEP) strain of female and male rats, Alcohol 16:343-357, 1998; […] et al., Effects of NMDA glutamate receptor antagonist drugs on the consumption of ethanol by a genetic drinking rat, Brain Res. Bull 64:279-284, 2004). Briefly, subject male rats were taken from the selectively bred Myers' high ethanol preferring (MHEP) line (Myers et al., Alcohol 16:343-357, 1998), which drink copious amounts of ethanol, even in the presence of palatable alternatives. These rats were subjected to an ethanol preference selection protocol, 3% to 30% during a 10-day “step up” procedure that ensures the maximum amount of drinking at each rat's desired ethanol concentration, with the proportion of ethanol to total fluid consumption of approximately 50%. After the rats were selected and drinking a fixed concentration of ethanol, they were subjected to a three-day baseline ethanol consumption period. This was followed by a three-day period of test drug administration (IP), then a three-day post-treatment period. During this entire study, the following parameters were measured on a daily basis: volume of water consumed; volume of ethanol solution consumed; weight of food consumed; and rat body weight. […] Doses were calculated as the free base form of each drug. Once drinking stabilized to baseline levels post-treatment, a different dose of drug was administered. […] The order of drug doses or vehicle (0.9% saline) was set up in a counter-balanced design. The data were averaged for each period for each rat then grouped and analyzed by one-way repeated measures ANOVA and Tukey's post-hoc analysis.
# [6] = test system: male mHEP rat; test: Volitional consumption of ethanol in the HEP (high ethanol preferring) rat; format: in vivo; conditions: for Ethanol Consumption, Mean ± s.e.m., pre-: three-day pre-treatment period (baseline); for Ethanol Consumption, Mean ± s.e.m., pre- / Ethanol Consumption, Mean ± s.e.m., during / Ethanol Consumption, Mean ± s.e.m., post-: male mHEP rat; for Ethanol Consumption, Mean ± s.e.m., during: during three days of injections; for Ethanol Consumption, Mean ± s.e.m., post-: three-day post-treatment period
# Experimental: as §1
# Chain of norepinephrine transporter (norepinephrine uptake site), rat forebrain membranes (Q63380 1-617): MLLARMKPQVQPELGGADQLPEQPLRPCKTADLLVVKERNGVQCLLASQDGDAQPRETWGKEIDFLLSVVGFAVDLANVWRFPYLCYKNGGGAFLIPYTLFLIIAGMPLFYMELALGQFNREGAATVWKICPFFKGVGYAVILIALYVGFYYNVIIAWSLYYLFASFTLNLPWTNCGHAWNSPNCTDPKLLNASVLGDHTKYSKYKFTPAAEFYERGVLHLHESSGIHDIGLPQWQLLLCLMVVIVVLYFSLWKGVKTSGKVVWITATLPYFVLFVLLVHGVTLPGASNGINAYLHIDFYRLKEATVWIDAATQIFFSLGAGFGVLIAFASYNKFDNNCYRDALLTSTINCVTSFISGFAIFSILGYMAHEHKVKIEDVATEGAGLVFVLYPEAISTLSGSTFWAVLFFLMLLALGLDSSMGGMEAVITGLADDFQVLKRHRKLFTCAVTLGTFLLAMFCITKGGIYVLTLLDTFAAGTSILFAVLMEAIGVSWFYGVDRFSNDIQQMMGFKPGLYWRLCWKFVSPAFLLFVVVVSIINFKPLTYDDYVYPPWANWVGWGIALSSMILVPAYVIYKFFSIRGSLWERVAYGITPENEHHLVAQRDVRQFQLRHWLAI
compound,measurement,setting,value
"Cl.Clc1ccc([C@@]23CNC[C@@H]2C3)cc1Cl (single isomer, unassigned) [(+)-1-(3,4-dichlorophenyl)-3-azabicyclo[3.1.0]hexane HCl] [(+)-1-(3,4-dichlorophenyl)-3-azabicyclo[3.1.0]hexane hydrochloride, reference compound]",affinity for the norepinephrine uptake site (in words),[1],has affinity
same,affinity for the serotonin uptake site (in words),[2],has affinity
"Cl.Clc1ccc([C@@]23CNC[C@@H]2C3)cc1Cl (single isomer, unassigned) [(+)-1-(3,4-dichlorophenyl)-3-azabicyclo[3.1.0]hexane hydrochloride, reference compound]",affinity for the dopamine uptake site (in words),[3],have affinity
"Cl.Clc1ccc([C@@]23CNC[C@@H]2C3)cc1Cl (single isomer, unassigned) [(−)-1-(3,4-dichlorophenyl)-3-azabicyclo[3.1.0]hexane HCl] [(−)-1-(3,4-dichlorophenyl)-3-azabicyclo[3.1.0]hexane hydrochloride]",affinity for the norepinephrine uptake site (in words),[1],no measurable affinity
same,"difference in affinity, uptake at the serotonin transporter",[4],9.6 fold
same,affinity for the serotonin uptake site (in words),[2],no measurable affinity
"Cl.Clc1ccc([C@@]23CNC[C@@H]2C3)cc1Cl (single isomer, unassigned) [(−)-1-(3,4-dichlorophenyl)-3-azabicyclo[3.1.0]hexane hydrochloride]",affinity for the dopamine uptake site (in words),[3],have affinity
same,"Bodyweight, Mean ± s.e.m., pre-",[5]; 2.5 mg/kg b.i.d. IP group,0.369 ± 0.019 kg
same,"Bodyweight, Mean ± s.e.m., during",[5]; 2.5 mg/kg b.i.d. IP,0.372 ± 0.019 kg
same,"Bodyweight, Mean ± s.e.m., post-",[5]; 2.5 mg/kg b.i.d. IP,0.373 ± 0.019 kg
same,"Bodyweight, Mean ± s.e.m., pre-",[5]; 5.0 mg/kg b.i.d. IP group,0.392 ± 0.009 kg
same,"Bodyweight, Mean ± s.e.m., during",[5]; 5.0 mg/kg b.i.d. IP,0.394 ± 0.009 kg
same,"Bodyweight, Mean ± s.e.m., post-",[5]; 5.0 mg/kg b.i.d. IP,0.394 ± 0.007 kg
same,"Bodyweight, Mean ± s.e.m., pre-",[5]; 10.0 mg/kg b.i.d. IP group,0.381 ± 0.028 kg
same,"Bodyweight, Mean ± s.e.m., during",[5]; 10.0 mg/kg b.i.d. IP,0.381 ± 0.028 kg
same,"Bodyweight, Mean ± s.e.m., post-",[5]; 10.0 mg/kg b.i.d. IP,0.382 ± 0.028 kg
same,"Bodyweight, Mean ± s.e.m., pre-",[5]; 20.0 mg/kg b.i.d. IP group,0.421 ± 0.015 kg
same,"Bodyweight, Mean ± s.e.m., during",[5]; 20.0 mg/kg b.i.d. IP,0.423 ± 0.015 kg
same,"Bodyweight, Mean ± s.e.m., post-",[5]; 20.0 mg/kg b.i.d. IP,0.418 ± 0.015^a kg
same,body weight (in words),"[5]; treated rats, as expected for rats of this age",small increases in body weight
same,"Ethanol Consumption, Mean ± s.e.m., pre-",[6]; 2.5 mg/kg b.i.d. IP group,5.39 ± 0.89 g ethanol/kg/day
same,"Ethanol Consumption, Mean ± s.e.m., during",[6]; 2.5 mg/kg b.i.d. IP,4.32 ± 0.69 g ethanol/kg/day
same,"Ethanol Consumption, Mean ± s.e.m., post-",[6]; 2.5 mg/kg b.i.d. IP,5.79 ± 0.86^a g ethanol/kg/day
same,"Ethanol Consumption, Mean ± s.e.m., pre-",[6]; 5.0 mg/kg b.i.d. IP group,6.00 ± 0.59 g ethanol/kg/day
same,"Ethanol Consumption, Mean ± s.e.m., during",[6]; 5.0 mg/kg b.i.d. IP,4.33 ± 0.62 g ethanol/kg/day
same,"Ethanol Consumption, Mean ± s.e.m., post-",[6]; 5.0 mg/kg b.i.d. IP,5.66 ± 0.64 g ethanol/kg/day
same,"Ethanol Consumption, Mean ± s.e.m., pre-",[6]; 10.0 mg/kg b.i.d. IP group,6.77 ± 0.51 g ethanol/kg/day
same,"Ethanol Consumption, Mean ± s.e.m., during",[6]; 10.0 mg/kg b.i.d. IP,3.50 ± 0.45 g ethanol/kg/day
same,"Ethanol Consumption, Mean ± s.e.m., post-",[6]; 10.0 mg/kg b.i.d. IP,4.15 ± 0.61 g ethanol/kg/day
same,effect on ethanol consumption during the post-treatment period (in words),"[6]; 10 mg/kg b.i.d., post-treatment period",significant carry over effect
same,"Ethanol Consumption, Mean ± s.e.m., pre-",[6]; 20.0 mg/kg b.i.d. IP group,5.26 ± 0.49 g ethanol/kg/day
same,"Ethanol Consumption, Mean ± s.e.m., during",[6]; 20.0 mg/kg b.i.d. IP,1.80 ± 0.28 g ethanol/kg/day
same,"Ethanol Consumption, Mean ± s.e.m., post-",[6]; 20.0 mg/kg b.i.d. IP,2.89 ± 0.45 g ethanol/kg/day
same,decrease in the proportion of alcohol consumed (volume of ethanol / total volume of ethanol solution and water),"[6]; 20 mg/kg b.i.d., after treatment",41%
same,decrease in the proportion of alcohol consumed (volume of ethanol / total volume of ethanol solution and water),"[6]; 20 mg/kg b.i.d., during treatment",62.3%
same,ethanol consumption depressed compared to the pre-treatment period,"[6]; 20 mg/kg b.i.d., post-treatment period",55.1%
same,decrease in ethanol consumption compared to the pre-treatment period,"[6]; 20 mg/kg b.i.d., treatment period",65.8%
same,amount of ethanol consumed (in words),"[6]; across doses, mHEP rat",strong dose-dependent decrease in consumption
same,volitional consumption of ethanol (in words),[6]; dose range of 5.0 to 20 mg/kg b.i.d.,significantly reduced
same,proportion of ethanol consumed (in words),[6]; mHEP rat,strong decrease
